According to patent publication US20050282840A1, “Methods of modulating neurotrophin-mediated activity” (PainCeptor Pharma Corporation, priority 2004, published 2005):
Where two headings read alike, the source gives them in different places.

Tests used:
[1] = target: T1, p75^NTR (Rattus norvegicus, UniProt P07174); assay: 125I-BDNF crosslinking to p75^NTR receptors on nnr5 cells; type: binding; details: 0.1 nM 125I-BDNF, 2 h at 4° C., read-out: IC50 (mean±S.E.M), inhibition of 125I-BDNF crosslinking to p75^NTR
T1 construct: ^125I-BDNF crosslinking to p75^NTR receptors on nnr5 cells expressing p75^NTR; endogenous in cells; host or cells: PC12^nnr5 cells (TrkB-transfected)
T1 sequence (P07174 30-425): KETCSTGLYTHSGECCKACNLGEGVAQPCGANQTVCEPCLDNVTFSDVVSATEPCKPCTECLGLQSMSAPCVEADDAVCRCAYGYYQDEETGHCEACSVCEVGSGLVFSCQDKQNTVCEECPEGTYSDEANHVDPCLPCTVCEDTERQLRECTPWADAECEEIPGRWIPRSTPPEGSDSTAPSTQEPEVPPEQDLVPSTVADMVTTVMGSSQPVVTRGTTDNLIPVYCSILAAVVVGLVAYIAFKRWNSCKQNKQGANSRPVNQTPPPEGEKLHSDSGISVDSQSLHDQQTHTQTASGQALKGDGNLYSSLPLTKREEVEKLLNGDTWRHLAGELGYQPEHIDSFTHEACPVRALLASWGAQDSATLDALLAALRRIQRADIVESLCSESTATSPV
T1 sequence (P23560 129-247 partner): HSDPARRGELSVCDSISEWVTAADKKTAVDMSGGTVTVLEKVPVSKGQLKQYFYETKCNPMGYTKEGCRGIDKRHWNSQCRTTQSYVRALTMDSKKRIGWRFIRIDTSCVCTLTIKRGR
Method: Cells were incubated at 37° C. in 5% CO2. PC12 and PC12^nnr5 cells were maintained in RPMI-1640 medium supplemented with 10% fetal calf serum (FCS); cells were harvested by replacing the medium with calcium-magnesium-free balanced salt (Gey's) solution and incubating at 37° C. for 15 min. NIH-3T3 cells were grown in Dulbecco's modified Eagle medium: F12 containing 5% FCS; cells were harvested by replacing the medium with a 0.25% trypsin-0.53 mM ethylenediaminetetraacetic acid (EDTA) solution and incubating at 37° C. for 5 min.
The full-length TrkB cDNA was cloned into the CMV plasmid vector. Transient expression of TrkB in PC12^nnr5 cells was achieved by transfecting the cells with the TrkB expression vector using Lipofectamine Plus reagents (Invitrogen Canada Inc; Burlington, ON). PC12^nnr5 cells were passed through a syringe fitted with a 21-gauge needle several times to prevent clumping. In a 100 mm dish, 10×10^6 cells were plated and used for transfection the next day. […]
PC12 cells or TrkB-expressing PC12^nnr5 cells were recovered using Gey's solution, pelleted by centrifugation, and suspended in HKR (HEPES-Krebs Ringer Solution; [10 mM HEPES, 125 mM NaCl, 4.8 mM KCl, 1.3 mM CaCl2.2H2O, 1.2 mM MgSO4, 1.2 mM KH2PO4, 1 mg/mL BSA, 1 mg/mL glucose, pH 7.35]). […] Dried gels were registered to the autoradiograph and each labeled protein band was quantified by direct gamma counting. […]

[2] = target: T2, p75^NTR receptors (PC12 cells) (Rattus norvegicus, UniProt P07174); assay: Basic screening assay: binding of 125I-BDNF to PC12 cells; details: for 125I-BDNF Binding (% binding): Example 3 table; for activity at 50 µM: read-out: BDNF Activity % Maximal Binding
T2 construct: endogenous in cells; host or cells: PC12 cells
T2 sequence (P07174 30-425): T1 sequence (P07174 30-425)
T2 sequence (P23560 129-247 partner): T1 sequence (P23560 129-247 partner)
Method in brief: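 4×10^6 PC12 cells incubated 2 h at 4° C, rotating, with 0.5 nM ^125I-BDNF (final) and compound at 50 μM, in duplicate or more. Bound ligand separated through 10% glycerol by centrifugation and counted by gamma counter; specific binding is Bmax minus NSB; inhibitors followed up for EC50.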

[3] = test system: p75^NTR receptors (PC12 cells); assay: Basic screening assay: binding of 125I-NGF to PC12 cells; details: for 125I-NGF Binding (% binding): Example 3 table; for NGF Activity % Maximal Binding: test compound 50 μM, 0.5 nM 125I-NGF, PC12 cells, 2 h at 4° C., specific binding as percent of control
Method in brief: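 PC12 cells (4×10^6) incubated 2 h at 4° C with 0.5 nM 125I-NGF and test compound at 50 μM, rotating. Bound tracer pelleted through 10% glycerol and gamma-counted; specific binding expressed as percent of control after NSB subtraction.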

[4] = test system: p75; assay: Neurotrophin-receptor crosslinking assay, 125I-NGF (Example 3); type: binding; details: for 125I-NGF X-linking Sample (% binding): crosslinked sample counted on gamma counter; for 125I-NGF X-linking p75 band (% binding): p75 band counted on gamma counter
Method: (§1) PC12 cells or TrkB-expressing PC12^nnr5 cells were recovered using Gey's solution, pelleted by centrifugation, and suspended in HKR (HEPES-Krebs Ringer Solution; [10 mM HEPES, 125 mM NaCl, 4.8 mM KCl, 1.3 mM CaCl2.2H2O, 1.2 mM MgSO4, 1.2 mM KH2PO4, 1 mg/mL BSA, 1 mg/mL glucose, pH 7.35]). In a total volume of 1 mL, 1×10^6 cells were incubated, rotating, with 0.1 nM ^125I-BDNF or ^125I-NGF and additions (Compound A or Compound B at the indicated final concentrations) for 2 h at 4° C. At the conclusion of the binding reaction, a 20 μL volume of BS^3 was added to a final concentration of 0.4 mM and incubated, rocking, for an additional 30 min at room temperature. Cells were washed twice in TBS. For analysis of ^125I-NGF crosslinking to TrkA, ^125I-NGF crosslinking to p75^NTR, and ^125I-BDNF crosslinking to p75^NTR, samples were solubilized directly in SDS sample buffer and heated for 10 min at 95° C. For analysis of ^125I-BDNF crosslinking to TrkB, samples were immunoprecipitated with a pan-Trk antibody. All samples were electrophoresed on a 6% SDS-polyacrylamide gel, dried, and autoradiographed. Dried gels were registered to the autoradiograph and each labeled protein band was quantified by direct gamma counting. Non-linear regression analysis was performed by Prism 3.0 to generate concentration-effect curves and determine IC50 values.
(§2) The neurotrophin-receptor crosslinking assay described in Example 1 was used to determine binding of compounds 65, 3, 43 and 97 to ^125I-NGF and ^125I-BDNF.
(§3) ^1The p75 band was excised from the gel and cpm were determined on a gamma counter. Values were calculated as follows: [formula]
(§4) ^2An aliquot of the total crosslinked sample in SDS-sample buffer was counted on a gamma counter. Values were calculated as follows: [formula]

[5] = test system: p75; assay: Neurotrophin-receptor crosslinking assay, 125I-BDNF (Example 3); type: binding; details: for 125I-BDNF X-linking Sample (% binding): crosslinked sample counted on gamma counter; for 125I-BDNF X-linking p75 band (% binding): p75 band counted on gamma counter
Method: as §1, §2, §3, §4

Compound	IC50 [1]	125I-BDNF Binding (% binding) [2]	activity at 50 µM [2]	125I-NGF Binding (% binding) [3]	NGF Activity % Maximal Binding ([3]; Table 1)	125I-NGF X-linking Sample (% binding) [4]	125I-NGF X-linking p75 band (% binding) [4]	125I-BDNF X-linking Sample (% binding) [5]	125I-BDNF X-linking p75 band (% binding) [5]	activity at 50 µM ([2]; Table 1, test compound 50 μM, 0.5 nM 125I-BDNF, PC12 cells, 2 h at 4° C., specific binding as percent of control)	activity at 50 µM ([2]; Table 4, test compound 50 μM, 0.5 nM 125I-BDNF, PC12 cells, 2 h at 4° C., specific binding as percent of control)	NGF Activity % Maximal Binding ([3]; Table 4)
COc1ccc(-c2ccc(C=C3C(=O)N(c4ccc(C(=O)O)cc4)N=C3C)o2)c([N+](=O)[O-])c1 (racemic) [Compound A, 4-{4-[5-(4-Methoxy-2-nitro-phenyl)-furan-2-ylmethylene]-3-methyl-5-oxo-4,5-dihydro-pyrazol-1-yl}-benzoic acid]	15.64 ± 0.05 µM											
NS(=O)(=O)c1ccc(-c2ccc(/C=C3/SC(=S)N(CCC(=O)O)C3=O)o2)cc1 [Compound B]	10.56 ± 0.05 µM											
Cc1cc(-c2ccc(C=C3C(=O)NC(=S)NC3=O)o2)c(C)c([N+](=O)[O-])c1 [Compound 3, 5-[5-(2,5-Dimethyl-3-nitrophenyl)furan-2-ylmethylene]-2-thioxo-dihydro-pyrimidine-4,6-dione]		XXXXX (0 < XXXXX < 10)	0 to 10%	* (50 < *)	* (50 < *)	* (50 < *)	* (50 < *)	XXXXX (0 < XXXXX < 10)	XXXXX (0 < XXXXX < 10)			
O=C(O)c1cc(-c2ccc(/C=C3\NC(=O)N(c4cccc(Cl)c4)C3=O)o2)ccc1Cl [Compound 43, 2-Chloro-5-{5-[1-(3-chlorophenyl)-2,5-dioxo-imidazolidin-4-ylidenemethyl]furan-2-yl}benzoic acid]		XXX (20 < XXX < 30)		* (50 < *)	* (50 < *)	* (50 < *)	* (50 < *)	XXX (20 < XXX < 30)	XXXXX (0 < XXXXX < 10)	30 to 40%		
O=C1NC(=O)/C(=C\c2ccc(-c3ccc(Cl)c([N+](=O)[O-])c3)o2)S1 [Compound 97, 5-[5-(4-Chloro-3-nitrophenyl)furan-2-ylmethylene]-thiazolidine-2,4-dione]		* (50 < *)		* (50 < *)		* (50 < *)	* (50 < *)	* (50 < *)	XX (30 < XX < 40)		> 50%	* (50 < *)
